In US11207299B2, “Biphenyl sulfonamide compounds for the treatment of type IV collagen diseases” (Travere Therapeutics, Inc., priority 2018, dated 2021):
“Also recorded” adds a separate entry of the source.

Experiments:
Type in all cases: in vivo, mouse
[1] = test system: autosomal Alport mice (COL4A3^−/−); experiment: Pilot study: dose-dependent effects of sparsentan in Alport mice treated from 3-7 weeks of age; settings: for SBP / UP/C / DBP / Sclerotic Glomeruli (%) / BUN / Fibrosis Score: mean ± SD; for Sclerotic Glomeruli (%): fibronectin staining; for Fibrosis Score: at 7 wk, COL1-positive cortical area scored 0=<5% to 5=75-100%
Text: (§1) Vehicle or sparsentan was given daily by oral gavage to autosomal Alport mice (COL4A3^−/−) on the 129/Sv background (male and female) in five separate studies: a pilot study, an early intervention study (treated from 3-7 weeks of age), a late intervention study (treated from 5-7 weeks of age after the onset of glomerular (GM) changes), a lifespan study, and a hearing study (FIG. 1). The early intervention, late intervention, lifespan, and hearing studies also included mice treated with a comparator, losartan, which was given orally at 3-4 weeks of age in the early intervention study, in drinking water at 4-7 weeks of age in the early intervention study, and in drinking water at 5-7 weeks in the late intervention study.
(§2) Efficacy renal endpoints included blood urea nitrogen (BUN), proteinuria (urine protein to creatinine ratio, or UP/C), glomerulosclerosis, tubulointerstitial fibrosis, leucocyte infiltration, and glomerular basement morphology (GBM) using transmission electron microscopy (TEM). Endpoints in the inner ear included auditory brain stem response (ABR) threshold as a measure of noise-induced hearing loss, strial capillary basement membrane thickness, and inner ear pathology by TEM.
(§3) In the pilot study, designed to determine an optimal efficacious dose of sparsentan, Alport mice (3-4 per group) were dosed with vehicle (0.5% methylcellulose 4000 cps/0.25% Tween® 80 in distilled water) or sparsentan at 60 mg/kg or 200 mg/kg from 3 to 7 weeks of age for 28 days. Although 200 mg/kg sparsentan was efficacious in the pilot study, BUN levels were higher than those of Alport mice dosed with 60 mg/kg sparsentan (Table 1; FIG. 2A; FIG. 2B). This observation led to the selection of a 120 mg/kg dose of sparsentan to take forward into the early intervention study. During the pilot study, blood pressure (BP) was measured weekly using the CODA2 tail cuff system. Stria from this pilot study were also examined by immunofluorescence using antibodies to laminin α2
(§4) For the pilot, early intervention, late intervention, and lifespan studies, spot urine was sampled pre-study and weekly during treatment and analyzed for protein (UP) and creatinine (C) to determine proteinuria (UP/C). At the end of each study the animals were euthanized, blood samples were taken, BUN was measured from serum, and kidneys were harvested for structural and immuno-fluorescent measurements. Glomerulosclerosis was assessed by immunofluorescence (IF) using an antibody to fibronectin (FN). Visual counting of the number of sclerotic glomeruli as a proportion of the total number of glomeruli per slide was used to calculate the percentage of sclerotic glomeruli. Sections were co-stained with an anti-CD45 antibody to indicate leucocyte infiltration. Tubulointerstitial fibrosis was determined by IF of kidney sections using an antibody to collagen 1 (COL1). Tubulointerstitial fibrosis (TIF) scoring was conducted by visual assessment of the COL1 positive area as a percentage of the total cortical area and was performed blinded. The fibrosis scoring (“Fibrosis Score”) was categorized according to visual judgment of percentage of total cortical area, as: 0=<5%, 1=5-10%, 2=10-25%, 3=25-50%, 4=50-75%, or 5=75-100%. Ultrastructural changes in GBM and podocyte morphology were observed using transmission electron microscopy (TEM).

[2] = test system: autosomal Alport mice (COL4A3^−/−); experiment: Early intervention study in Alport mice (treated from 3-7 weeks of age)
Text: as §1, §2
In the early intervention study, wild-type and Alport mice were dosed daily by oral gavage with vehicle or sparsentan at 120 mg/kg from 3 to 7 weeks of age (7-8 mice per group), or with losartan at 20 mg/kg by oral gavage from 3-4 weeks of age (during weaning) and 10 mg/kg in drinking water from 4-7 weeks of age.
as §4

[3] = test system: laminin α2 in stria of Alport mice; experiment: Immunofluorescence of laminin α2 in stria of Alport mice; settings: Alport mice, sparsentan 200 mg/kg from 3-7 weeks of age (pilot study)
Description: as §3, with “Stria from this pilot study were also examined by immunofluorescence using antibodies to laminin α2” left out
For the hearing study, wild-type or Alport mice were treated according to daily from 3-8.5 weeks of age by oral gavage with vehicle (0.5% methylcellulose 4000 cps/0.25% Tween® 80 in distilled water) or 120 mg/kg sparsentan or losartan at 20 mg/kg by oral gavage from 3-4 weeks of age (during weaning) and 10 mg/kg in drinking water from 4-7 weeks of age (n=5). The progression of Alport disease was assessed at 7 weeks of age by the amount of proteinuria (via urinalysis reagent strips—data not shown). […] Hearing ability and sensitivity to noise were assessed between 7 and 8 weeks of age by Auditory Brainstem Response (ABR), pre-noise exposure. […]

[4] = Alport mice, sparsentan 60 mg/kg, at 5 wk of age
[5] = Alport mice, sparsentan 60 mg/kg, at 6 wk of age
[6] = Alport mice, sparsentan 60 mg/kg, at 7 wk of age
[7] = Alport mice, sparsentan 200 mg/kg, at 5 wk of age
[8] = Alport mice, sparsentan 200 mg/kg, at 6 wk of age
[9] = Alport mice, sparsentan 200 mg/kg, at 7 wk of age
[10] = Alport mice, sparsentan 120 mg/kg, at 7 wk of age, mean ± SD

**Q.** `CCCCC1=NC2(CCCC2)C(=O)N1Cc1ccc(-c2ccccc2S(=O)(=O)Nc2noc(C)c2C)c(COCC)c1` [sparsentan] was tested. Which “BUN levels after 200 mg/kg compared to 60 mg/kg sparsentan” value ([1]; Alport mice, 7 weeks of age, 4 weeks of dosing) did it give?
**A.** elevated

**Q.** What about the SBP ([1]; Alport mice, sparsentan 60 mg/kg oral daily from 3 wk, at 5 wk of age, n = 4) of the same molecule?
**A.** 114.0 ± 13.0 mmHg

**Q.** What about the UP/C ([1]; Alport mice, sparsentan 60 mg/kg, at 4 wk of age) of the same molecule?
**A.** 3.4 ± 2.6 mg/mg

**Q.** And the DBP [1, 4]?
**A.** 71.1 ± 10.7 mm/Hg

**Q.** What about the UP/C [1, 4] of the same molecule?
**A.** 8.6 ± 2.4 mg/mg

**Q.** And the DBP [1, 5]?
**A.** 72.9 ± 9.6 mm/Hg

**Q.** And the SBP [1, 5]?
**A.** 106.2 ± 6.9 mmHg

**Q.** What about the UP/C [1, 5] of the same molecule?
**A.** 1.5 ± 1.5 mg/mg

**Q.** What about the “Sclerotic Glomeruli (%)” value [1, 6] of the same molecule?
**A.** 3.5±1.6%

**Q.** What about the BUN [1, 6] of the same molecule?
**A.** 17.1 ± 1.5 mg/dL

**Q.** And the DBP [1, 6]?
**A.** 78.1 ± 14.7 mm/Hg

**Q.** What about the SBP [1, 6] of the same molecule?
**A.** 117.6 ± 4.6 mmHg

**Q.** What about the UP/C [1, 6] of the same molecule?
**A.** 5.6 ± 3.0 mg/mg

**Q.** And the “Fibrosis Score” value ([1]; Alport mice, sparsentan 60 mg/kg)?
**A.** 0.0 ± 0.0

**Q.** What about the SBP ([1]; Alport mice, sparsentan 200 mg/kg oral daily from 3 wk, at 5 wk of age, n = 3) of the same molecule?
**A.** 110.6 ± 21.8 mmHg

**Q.** And the UP/C ([1]; Alport mice, sparsentan 200 mg/kg, at 4 wk of age)?
**A.** 2.1 ± 3.7 mg/mg

**Q.** What about the DBP [1, 7] of the same molecule?
**A.** 99.7 ± 7.7 mm/Hg

**Q.** What about the UP/C [1, 7] of the same molecule?
**A.** 3.9 ± 3.5 mg/mg

**Q.** What about the DBP [1, 8] of the same molecule?
**A.** 74.6 ± 21.4 mm/Hg

**Q.** What about the SBP [1, 8] of the same molecule?
**A.** 108.7 ± 26.4 mmHg

**Q.** What about the UP/C [1, 8] of the same molecule?
**A.** 1.5 ± 2.7 mg/mg

**Q.** What about the “Sclerotic Glomeruli (%)” value [1, 9] of the same molecule?
**A.** 1.4±1.3%

**Q.** What about the BUN [1, 9] of the same molecule?
**A.** 25.9 ± 7.7 mg/dL

**Q.** What about the DBP [1, 9] of the same molecule?
**A.** 91.7 ± 20.0 mm/Hg

**Q.** And the SBP [1, 9]?
**A.** 122 ± 20.9 mmHg

**Q.** And the UP/C [1, 9]?
**A.** 0.8 ± 1.4 mg/mg

**Q.** And the “Fibrosis Score” value ([1]; Alport mice, sparsentan 200 mg/kg)?
**A.** 0.0 ± 0.0

**Q.** What about the “Prevention of UP/C, glomerulosclerosis, and fibrosis compared to vehicle-treated mice” value ([1]; sparsentan 60 and 200 mg/kg, 3-7 weeks of age) of the same molecule?
**A.** prevented an increase in glomerulosclerosis in a dose-dependent manner; also recorded: dose-dependent prevention

**Q.** What about the “Systolic and diastolic blood pressure compared to vehicle-treated Alport mice” value ([1]; sparsentan 60 or 200 mg/kg, 6 weeks of age (3 weeks of dosing)) of the same molecule?
**A.** significantly lower

**Q.** And the COL1 immunoreactivity ([1]; sparsentan-treated Alport mice, pilot study, kidney sections)?
**A.** absent

**Q.** What about the “BP compared to vehicle-treated Alport mice” value ([1]; sparsentan, end of pilot study (7 weeks of age; 4 weeks of dosing)) of the same molecule?
**A.** no difference

**Q.** And the “GBM damage and podocyte effacement (TEM)” value ([2]; Alport mice, sparsentan 120 mg/kg, early intervention)?
**A.** prevented changes in GBM ultrastructural morphology; also recorded: amelioration

**Q.** And the UP/C ([2]; Alport mice, sparsentan 120 mg/kg oral daily from 3 wk, at 4 wk of age, mean ± SD, n = 8)?
**A.** 3.8 ± 1.3 mg/mg

**Q.** What about the UP/C ([2]; Alport mice, sparsentan 120 mg/kg, at 5 wk of age, mean ± SD) of the same molecule?
**A.** 10.4 ± 2.8 mg/mg

**Q.** What about the UP/C ([2]; Alport mice, sparsentan 120 mg/kg, at 6 wk of age, mean ± SD) of the same molecule?
**A.** 13.6 ± 3.7 mg/mg

**Q.** And the BUN [2, 10]?
**A.** 17.5 ± 3.3 mg/dL

**Q.** And the “Sclerotic Glomeruli (%)” value [2, 10]?
**A.** 0.8 ± 1.7 %

**Q.** What about the UP/C [2, 10] of the same molecule?
**A.** 14.0 ± 3.3 mg/mg

**Q.** And the “Fibrosis Score” value ([2]; Alport mice, sparsentan 120 mg/kg, at 7 wk, score 0=<5% to 5=75-100% COL1 area, mean ± SD)?
**A.** 0.0 ± 0.0

**Q.** And the “Development of nephropathy in Alport mice” value ([2]; sparsentan 120 mg/kg 28 days or losartan 20 mg/kg 7 days then 10 mg/kg 21 days, from 3 weeks of age)?
**A.** prevented

**Q.** And the “UP/C, BUN, glomerulosclerosis, and fibrosis vs. vehicle-treated Alport mice” value ([2]; sparsentan 120 mg/kg or losartan 20/10 mg/kg from 3 weeks of age, P<0.05)?
**A.** significant attenuation

**Q.** What about the TIF or glomerulosclerosis ([2]; sparsentan- or losartan-treated Alport mice, early intervention) of the same molecule?
**A.** little to no

**Q.** What about the “Accumulation of laminin α2 in stria” value [3] of the same molecule?
**A.** prevented
